Test results taken from ChEMBL document CHEMBL3244111, “Nitrones. 7. alpha-Quinoxalinyl-N-substituted nitrone 1,4-dioxides” (J Med Chem, 1977).
The source made the active and inactive calls. The calls are words filed in the database; no cut-off is given here.

How the values were obtained:
Salmonella typhimurium = assay: In vivo antibacterial activity against Salmonella typhimurium infected in CF1 mouse assessed as protection against bacterial infection administered as two doses; assay type: functional, Salmonella enterica subsp. enterica serovar Typhimurium; settings: Salmonella enterica
Salmonella [1] = assay: In vivo antibacterial activity against Salmonella typhosa infected in CF1 mouse assessed as protection against bacterial infection administered as two doses; assay type: functional
Streptococcus pneumoniae = assay: In vivo antibacterial activity against Diplococcus pneumoniae I infected in CF1 mouse assessed as protection against bacterial infection administered as two doses; assay type: functional
Listeria monocytogenes = assay: In vivo antibacterial activity against Listeria monocytogenes infected in CF1 mouse assessed as protection against bacterial infection administered as two doses; assay type: functional
Staphylococcus aureus = assay: In vivo antibacterial activity against Staphylococcus aureus infected in CF1 mouse assessed as protection against bacterial infection administered as two doses; assay type: functional
Streptococcus pyogenes = assay: In vivo antibacterial activity against Streptococcus pyogenes infected in CF1 mouse assessed as protection against bacterial infection administered as two doses; assay type: functional
[2] = Acute toxicity in po dosed mouse administered as single dose; assay type: organism-based; settings: in vivo
[3] = Acute toxicity in sc dosed mouse administered as single dose; assay type: organism-based; settings: in vivo
Histomonas meleagridis = assay: In vivo antiprotozoal activity against Histomonas meleagridis infected in turkey; assay type: functional, organism-based
Shigella flexneri = assay: In vivo antibacterial activity against Shigella paradysenteriae infected in CF1 mouse assessed as protection against bacterial infection administered as two doses; assay type: functional
Escherichia coli = assay: In vivo antibacterial activity against Escherichia coli infected in CF1 mouse assessed as protection against bacterial infection administered as two doses; assay type: functional
Klebsiella pneumoniae = assay: In vivo antibacterial activity against Klebsiella pneumoniae infected in CF1 mouse assessed as protection against bacterial infection administered as two doses; assay type: functional
Pasteurella multocida = assay: In vivo antibacterial activity against Pasteurella multocida infected in CF1 mouse assessed as protection against bacterial infection administered as two doses; assay type: functional
Proteus mirabilis = assay: In vivo antibacterial activity against Proteus mirabilis infected in CF1 mouse assessed as protection against bacterial infection administered as two doses; assay type: functional
Pseudomonas aeruginosa = assay: In vivo antibacterial activity against Pseudomonas aeruginosa infected in sc dosed CF1 mouse assessed as protection against bacterial infection administered as two doses; assay type: functional
Salmonella enteritidis = assay: In vivo antibacterial activity against Salmonella enteriditis infected in CF1 mouse assessed as protection against bacterial infection administered as two doses; assay type: functional, Salmonella enterica subsp. enterica serovar Enteritidis; settings: Salmonella enterica
Salmonella [4] = assay: In vivo antibacterial activity against Salmonella schottmuelleri infected in CF1 mouse assessed as protection against bacterial infection administered as two doses; assay type: functional
Shigella dysenteriae = assay: In vivo antibacterial activity against Shigella dysenteriae infected in CF1 mouse assessed as protection against bacterial infection administered as two doses; assay type: functional
[5] = Acute toxicity in ip dosed mouse administered as single dose; assay type: organism-based; settings: in vivo
Proteus vulgaris = assay: In vivo antibacterial activity against Proteus vulgaris infected in CF1 mouse assessed as protection against bacterial infection administered as two doses; assay type: functional

SMILES | ED50 (Salmonella typhimurium) [mg/kg] | ED50 (Salmonella [1]) [mg/kg] | ED50 (Streptococcus pneumoniae) [mg/kg] | ED50 (Listeria monocytogenes) [mg/kg] | ED50 (Staphylococcus aureus) [mg/kg] | ED50 (Streptococcus pyogenes) [mg/kg] | LD50 [2] [mg/kg] | LD50 [3] [mg/kg] | Activity (Histomonas meleagridis) | ED50 (Shigella flexneri) [mg/kg] | ED50 (Escherichia coli) [mg/kg] | ED50 (Klebsiella pneumoniae) [mg/kg] | ED50 (Pasteurella multocida) [mg/kg] | ED50 (Proteus mirabilis) [mg/kg] | ED50 (Pseudomonas aeruginosa) [mg/kg] | ED50 (Salmonella enteritidis) [mg/kg] | ED50 (Salmonella [4]) [mg/kg] | ED50 (Shigella dysenteriae) [mg/kg] | LD50 [5] [mg/kg] | ED50 (Proteus vulgaris) [mg/kg]
O=[N+]([O-])c1ccc(/C=[N+](/[O-])CCO)o1 [NIFURATRONE] | 30 | 31 | > 100 | > 100 | 26 | 47 | 518 | 417 | inactive | 46 | 27 | 39 | < 50 | 53 | > 100 | 47 | 8 | – | – | –
O=C(N[C@H](CO)[C@H](O)c1ccc([N+](=O)[O-])cc1)C(Cl)Cl [CHLORAMPHENICOL] | 16 | 24 | – | > 100 | 27 | 27 | 2640 | – | inactive | – | 41 | 20 | 11 | 52 | – | 29 | 9 | 61 | 1320 | > 100
Cc1c(/C=[N+](\C)[O-])[n+]([O-])c2ccccc2[n+]1[O-] | 16 | 10 | 32 | > 100 | 74 | 35 | > 1000 | 596 | inactive | 13 | 10 | 6 | 7 | 18 | > 250 | 2 | 1.5 | 62 | 596 | 35
